What is called IC50 is the concentration needed to halve the response being measured.

One data set deals with T1, rat lens AR (Rattus norvegicus, UniProt P07943).
T1 construct: Rat lens (RL) homogenate was prepared according to the modified method of Hayman and Kinoshita; from tissue; host or cells: lens of male Sprague-Dawley rats (homogenate supernatant, partially purified)
The experiment in a line: HPLC microfractionation rat lens AR assay. Format: biochemical. Also noted: concentration or dose not given beside the values. The note with it: amount of efficacy in HPLC microfractionation (Table 3).

The target in data set [1] is T2, rat lens aldose reductase (RLAR) (Rattus norvegicus, UniProt P07943).
T2 construct: Rat lens (RL) homogenate was prepared according to the modified method of Hayman and Kinoshita; from tissue; host or cells: lens of male Sprague-Dawley rats (homogenate supernatant, partially purified)
The experiment in a line: Rat lens AR inhibitory activity assay. The data set is classed as biochemical. Particulars: isolated compounds; for IC50: read-out: RLAR inhibition IC50.

A short description of data set [2]: ABTS radical scavenging activity (TEAC assay). Particulars: for IC50: read-out: Antioxidant IC50.
Data set [3] can be described thus: ABTS-offline HPLC assay of the EtOAc fraction. Particulars: 254 nm; for Peak area change after ABTS (in words): EtOAc fraction spiked with ABTS solution, Figure 1(a); for Antioxidant quantitative reduction (%): amount of peak decrease in ABTS-offline HPLC.
Data set [4] in a line: Partition coefficient (K) in two-phase HSCCC solvent systems. The data set is classed as physicochemical.
The mark [5] stands for this setting: n-Hexane-ethyl acetate-methanol-water 2.5 : 7.5 : 5 : 5 (v/v).
Where [6] appears, read: n-Hexane-ethyl acetate-methanol-water 3 : 7 : 4.5 : 5.5 (v/v).
[7] abbreviates: n-Hexane-ethyl acetate-methanol-water 4 : 6 : 2.5 : 7.5 (v/v).
Where [8] appears, read: n-Hexane-ethyl acetate-methanol-water 4 : 6 : 3.5 : 5.5 (v/v).

For the compound `O=C(/C=C/c1ccc(O)c(O)c1)O[C@@H]1C[C@](O)(C(=O)O)C[C@@H](O)[C@H]1O` [Compound 1, chlorogenic acid], the “RLAR inhibition, Inhibition (%)” value on rat lens AR amounted to 51.02%. Besides, the IC50 in data set [1] is 4.2 ± 3.2 µM.
In the case of `COc1cc(/C=C/C(=O)O)ccc1O` [Compound 3, trans-ferulic acid], at rat lens AR, the “RLAR inhibition, Inhibition (%)” value came out at 5.21%. Besides, the IC50 in data set [2] (isolated compounds) stood at 13.51 ± 0.04 µM. Besides, in data set [1], the “RLAR activity (in words)” value was “did not have RLAR activity” and the 50% inhibitory concentration (IC50) is more than 500 µM. Besides, in data set [3], the “Peak area change after ABTS (in words)” value was “peak area reductions” and the “Antioxidant quantitative reduction (%)” value is reported as 20.06%.
Take `COc1c(O[C@@H]2O[C@H](CO)[C@@H](O)[C@H](O)[C@H]2O)cc2occ(-c3ccc(O)cc3)c(=O)c2c1O` [Compound 4, tectoridin]: the “RLAR inhibition, Inhibition (%)” value at rat lens AR is 43.37%. Besides, in data set [2] (isolated compounds), the “Antioxidant activity (in words)” value is given as “did not have antioxidant activity” and the IC50 was more than 500 µM. In addition, the half-maximal inhibitory concentration (IC50) in data set [1] amounted to 50.4 ± 2.17 µM. Also, in data set [3], the “Peak area change after ABTS (in words)” value was “slightly decreased” and the “Antioxidant quantitative reduction (%)” value came to 8.43%.
With `Oc1cc(O)cc(/C=C/c2ccc(O)c(O)c2)c1` [Compound 5, piceatannol], the K values in data set [4] (setting [5]) is recorded as 0.37; in data set [4] (setting [6]), 0.34; in data set [4] (setting [7]), 3.91; in data set [4] (setting [8]) it was 0.37. Moreover, the IC50 in data set [2] (isolated compounds) was 6.73 ± 0.04 µM; in data set [1] it was more than 500 µM. Besides, the “RLAR activity (in words)” value in data set [1] was “did not have RLAR activity”. For the same compound, the “Peak area change after ABTS (in words)” value in data set [3] is reported as “peak area reductions”. Further, the “Antioxidant quantitative reduction (%)” value in data set [3] was 34.68%.
On to `Oc1ccc(/C=C/c2cc(O)cc(O)c2)cc1` [Compound 6, resveratrol], for which the “RLAR inhibition, Inhibition (%)” value at rat lens AR came out at 29.31%. Also, the K values in data set [4] (n-Heptane-ethyl acetate-methanol-water 1 : 6 : 1 : 6 (v/v)) is listed as 9.56; in data set [4] (setting [5]) it was 0.57; in data set [4] (setting [6]) it was 0.59; in data set [4] (setting [7]) it was 4.62; in data set [4] (setting [8]), 0.90. Further, the IC50 in data set [2] (isolated compounds) came to 11.05 ± 0.04 µM; in data set [1], 118 ± 3.12 µM.
As for `O=c1c(-c2ccc(O)cc2)coc2cc(O)ccc12` [Compound 7, daidzein], at rat lens AR, the “RLAR inhibition, Inhibition (%)” value came out at 28.14%. The IC50 in data set [2] (isolated compounds) is more than 500 µM; in data set [1], 152 ± 2.91 µM. Further, in data set [3], the “Antioxidant quantitative reduction (%)” value amounted to 0.48%.
With `O=c1c(-c2ccc(O)cc2)coc2cc(O)cc(O)c12` [Compound 8, genistein], on rat lens AR, the “RLAR inhibition, Inhibition (%)” value is reported as 38.54%. Also, the K values in data set [4] (n-Hexane-ethyl acetate-methanol-water 1 : 3 : 1 : 3 (v/v)) stood at 35.34; in data set [4] (setting [5]) it was 2.04; in data set [4] (setting [6]) it was 2.52; in data set [4] (setting [7]) it was 15.01; in data set [4] (setting [8]) it was 3.73. In addition, the figures for the IC50 in data set [2] (isolated compounds) and in data set [1] were more than 500 µM and 57.1 ± 3.23 µM, respectively. Also, the “Antioxidant quantitative reduction (%)” value in data set [3] was found to be 2.24%.
For `COc1ccc(-c2coc3cc(O)ccc3c2=O)cc1` [Compound 9, formononetin], the “RLAR inhibition, Inhibition (%)” value at rat lens AR is 30.11%. The K values in data set [4] (setting [5]) was found to be 0.33; in data set [4] (setting [6]) it was 0.40; in data set [4] (setting [7]), 3.39; in data set [4] (setting [8]), 0.39. Also, the IC50 in data set [2] (isolated compounds) was more than 500 µM; in data set [1], 69.2 ± 2.57 µM. Moreover, the “Antioxidant quantitative reduction (%)” value in data set [3] stood at 0.69%.
Take `Cc1c(C)c2c(c(C)c1O)CCC(C)(C(=O)O)O2` (stereo not drawn) [Trolox, 6-hydroxy-2,5,7,8-tetrame-thylchroman-2-carboxylic acid, reference compound]: the “Antioxidant IC50” value in data set [2] (concentration of 50% inhibition) is 8.72 ± 0.01 µg/mL. In addition, the “Antioxidant TEAC (Trolox equivalent antioxidant capacity)” value in data set [2] (relative to Trolox = 1.00) was found to be 1.00.

(Values after PMC5397615, “Rapid Identification and Isolation of Inhibitors of Rat Lens Aldose Reductase and Antioxidant in Maackia amurensis” (BioMed Research International, 2017).)
